Assay results published in ChEMBL document CHEMBL1201862, “PubChem BioAssay data set” (2004).
Active and inactive are the calls of the source.

Assays:
[1] = target: T1, Polyadenylate-binding protein 1 (Homo sapiens, UniProt P11940); test: PABP1 MLLE–PAM2 interaction inhibitors, dose response, miRNA deadenylation inhibitor project, biochemical, fluorescence polarization, Cy5-PAM2 peptide, secondary (AID 602260); type: functional; settings: read-out: IC50_Mean
[2] = target: T2, Rac GTPase-activating protein 1 (Homo sapiens, UniProt Q9H0H5); test: MgcRacGAP GTPase-activating activity inhibitors, confirmation, biochemical, ADP Hunter fluorescence, primary and confirmatory (AID 624330); type: functional
T2 sequence (Q9H0H5 whole entry): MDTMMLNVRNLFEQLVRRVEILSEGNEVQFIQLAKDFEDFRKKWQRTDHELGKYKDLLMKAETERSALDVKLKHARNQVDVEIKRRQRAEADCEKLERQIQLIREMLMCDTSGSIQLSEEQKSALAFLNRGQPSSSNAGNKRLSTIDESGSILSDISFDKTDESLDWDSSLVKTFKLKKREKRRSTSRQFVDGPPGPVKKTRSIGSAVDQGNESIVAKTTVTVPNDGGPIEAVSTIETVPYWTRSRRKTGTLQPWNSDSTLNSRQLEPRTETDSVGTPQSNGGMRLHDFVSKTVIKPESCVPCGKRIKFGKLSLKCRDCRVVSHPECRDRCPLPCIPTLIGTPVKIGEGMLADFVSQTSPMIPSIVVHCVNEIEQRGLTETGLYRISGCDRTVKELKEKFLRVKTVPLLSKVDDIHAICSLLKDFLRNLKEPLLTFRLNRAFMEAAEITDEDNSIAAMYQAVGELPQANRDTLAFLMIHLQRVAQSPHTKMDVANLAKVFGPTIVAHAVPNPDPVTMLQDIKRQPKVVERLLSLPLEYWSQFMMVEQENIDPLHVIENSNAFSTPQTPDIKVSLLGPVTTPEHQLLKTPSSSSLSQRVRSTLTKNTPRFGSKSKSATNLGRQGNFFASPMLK

[3] = target: T3, Mannose-6-phosphate isomerase (Homo sapiens, UniProt P34949); test: human PMI inhibitors, high substrate, primary screen, biochemical, fluorescence intensity, high mannose 6-phosphate (AID 1220)
T3 sequence (P34949 whole entry): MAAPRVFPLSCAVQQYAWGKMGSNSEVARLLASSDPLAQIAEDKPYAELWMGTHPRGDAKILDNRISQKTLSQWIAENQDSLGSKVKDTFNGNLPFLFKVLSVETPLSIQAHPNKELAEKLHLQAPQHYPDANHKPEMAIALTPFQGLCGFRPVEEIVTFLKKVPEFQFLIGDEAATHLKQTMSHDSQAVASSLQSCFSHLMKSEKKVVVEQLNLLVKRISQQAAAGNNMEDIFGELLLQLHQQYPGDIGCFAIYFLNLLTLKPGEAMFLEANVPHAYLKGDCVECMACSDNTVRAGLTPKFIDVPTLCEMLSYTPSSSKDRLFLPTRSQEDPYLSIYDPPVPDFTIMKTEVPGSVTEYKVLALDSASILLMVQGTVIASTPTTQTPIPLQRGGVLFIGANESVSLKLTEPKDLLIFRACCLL

[4] = target: T1, Polyadenylate-binding protein 1; test: PABP1 MLLE–PAM2 binding inhibitor potency, dose response, biochemical, fluorescence polarization, FITC-PAM2 peptide (AID 602259); type: functional; settings: read-out: IC50_Mean
Large T antigen = Large T antigen (Simian virus 40, UniProt P03070); type: functional, Betapolyomavirus macacae;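 also: Confirmatory-stage PubChem screen for compounds that inhibit SV40 T antigen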
[5] = target: T3, Mannose-6-phosphate isomerase; test: inhibitors of human PMI, primary screen, biochemical, fluorescence intensity, coupled assay (AID 1209)
[6] = target: Induced myeloid leukemia cell differentiation protein Mcl-1 (Homo sapiens, UniProt Q07820); type: functional
[7] = target: T4, Calpain-2 catalytic subunit (Sus scrofa, UniProt P43367); test: pig calpain II inhibitor potency, dose response, biochemical, fluorogenic peptide substrate (AID 1420); type: functional
T4 sequence (P43367 whole entry): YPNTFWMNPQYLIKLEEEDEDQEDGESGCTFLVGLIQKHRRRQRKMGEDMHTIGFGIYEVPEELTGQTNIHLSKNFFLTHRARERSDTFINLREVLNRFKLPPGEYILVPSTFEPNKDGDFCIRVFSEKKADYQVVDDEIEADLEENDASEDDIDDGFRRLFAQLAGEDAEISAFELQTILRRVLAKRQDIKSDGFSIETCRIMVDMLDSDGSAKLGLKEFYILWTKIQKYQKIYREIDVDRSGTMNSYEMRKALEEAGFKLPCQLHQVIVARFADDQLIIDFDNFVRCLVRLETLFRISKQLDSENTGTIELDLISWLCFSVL

Aminopeptidase N = target: T5, Aminopeptidase N (Plasmodium falciparum FcB1/Columbia, UniProt O96935); test: P. falciparum M1AAP inhibitors, biochemical, fluorogenic H-Leu-NHMec substrate, 1536-well (AID 1445); set-up: species or system Plasmodium falciparum 3D7, 3D7
T5 sequence (O96935 whole entry): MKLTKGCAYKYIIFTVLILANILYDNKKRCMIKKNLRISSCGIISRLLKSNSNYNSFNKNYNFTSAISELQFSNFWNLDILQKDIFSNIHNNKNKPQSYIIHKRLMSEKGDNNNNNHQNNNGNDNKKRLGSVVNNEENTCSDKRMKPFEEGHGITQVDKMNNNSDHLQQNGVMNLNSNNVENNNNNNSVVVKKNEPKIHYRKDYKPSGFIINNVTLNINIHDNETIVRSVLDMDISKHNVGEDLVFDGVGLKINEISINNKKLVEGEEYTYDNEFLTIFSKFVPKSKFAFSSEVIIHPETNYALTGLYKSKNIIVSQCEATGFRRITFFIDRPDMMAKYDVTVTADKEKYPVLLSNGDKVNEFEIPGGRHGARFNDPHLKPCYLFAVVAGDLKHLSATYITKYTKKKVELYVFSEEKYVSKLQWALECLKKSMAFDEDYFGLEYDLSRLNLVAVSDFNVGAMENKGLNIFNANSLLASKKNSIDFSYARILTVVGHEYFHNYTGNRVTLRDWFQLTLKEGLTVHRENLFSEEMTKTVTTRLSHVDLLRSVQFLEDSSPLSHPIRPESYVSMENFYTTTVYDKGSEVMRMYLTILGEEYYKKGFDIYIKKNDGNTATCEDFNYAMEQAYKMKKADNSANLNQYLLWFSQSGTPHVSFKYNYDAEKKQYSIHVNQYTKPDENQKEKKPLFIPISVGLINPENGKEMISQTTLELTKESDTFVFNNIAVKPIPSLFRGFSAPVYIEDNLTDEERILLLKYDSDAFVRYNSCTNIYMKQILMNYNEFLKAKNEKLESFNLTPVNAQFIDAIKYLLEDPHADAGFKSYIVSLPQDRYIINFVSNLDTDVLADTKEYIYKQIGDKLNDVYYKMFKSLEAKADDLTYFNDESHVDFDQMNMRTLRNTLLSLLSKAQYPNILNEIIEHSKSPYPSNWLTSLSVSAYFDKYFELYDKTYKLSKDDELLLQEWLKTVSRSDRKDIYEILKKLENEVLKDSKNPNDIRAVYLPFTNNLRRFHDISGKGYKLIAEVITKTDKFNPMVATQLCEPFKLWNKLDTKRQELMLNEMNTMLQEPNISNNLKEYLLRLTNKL

[8] = target: T6, Tyrosine-protein phosphatase non-receptor type 7 (Homo sapiens, UniProt P35236); test: inhibitors of human HePTP phosphatase, […], biochemical, absorbance, leukemia target (AID 521); type: functional
T6 sequence (P35236 whole entry): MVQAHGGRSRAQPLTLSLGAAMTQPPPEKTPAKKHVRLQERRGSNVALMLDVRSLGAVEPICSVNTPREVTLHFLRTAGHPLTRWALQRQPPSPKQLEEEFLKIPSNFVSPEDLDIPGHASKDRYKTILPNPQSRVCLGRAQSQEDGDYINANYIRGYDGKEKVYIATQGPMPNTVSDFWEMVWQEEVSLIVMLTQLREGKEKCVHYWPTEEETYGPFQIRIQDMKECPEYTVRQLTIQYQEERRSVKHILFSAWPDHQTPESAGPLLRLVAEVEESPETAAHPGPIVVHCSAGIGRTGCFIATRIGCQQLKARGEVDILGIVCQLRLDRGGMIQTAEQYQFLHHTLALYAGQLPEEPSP

Leucine aminopeptidase = target: T7, Leucine aminopeptidase (Plasmodium falciparum 3D7, UniProt Q8IL11); test: P. falciparum M17LAP inhibitors, primary screen, biochemical, fluorogenic H-Leu-NHMec substrate, 1536-well (AID 1619); type: functional
T7 sequence (Q8IL11 whole entry): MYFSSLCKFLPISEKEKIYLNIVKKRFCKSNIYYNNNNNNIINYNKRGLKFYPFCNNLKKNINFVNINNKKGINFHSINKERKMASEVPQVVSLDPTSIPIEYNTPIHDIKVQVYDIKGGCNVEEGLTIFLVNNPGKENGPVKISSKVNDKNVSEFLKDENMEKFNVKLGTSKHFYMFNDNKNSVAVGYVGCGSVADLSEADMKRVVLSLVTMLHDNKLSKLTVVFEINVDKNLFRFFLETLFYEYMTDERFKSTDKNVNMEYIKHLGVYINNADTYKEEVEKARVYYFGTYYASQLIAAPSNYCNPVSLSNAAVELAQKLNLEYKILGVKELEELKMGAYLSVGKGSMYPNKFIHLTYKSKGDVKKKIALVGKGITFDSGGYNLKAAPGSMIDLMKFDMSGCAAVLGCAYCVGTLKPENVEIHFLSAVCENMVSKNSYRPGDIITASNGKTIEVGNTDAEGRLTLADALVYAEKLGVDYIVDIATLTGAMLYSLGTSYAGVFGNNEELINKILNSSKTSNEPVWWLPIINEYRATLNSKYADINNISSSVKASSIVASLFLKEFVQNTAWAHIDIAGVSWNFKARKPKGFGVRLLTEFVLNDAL

[9] = growth suppression of PTEN-null colon cells, dose response, cell-based, HCT116 PTEN knockout (AID 1047); type: functional;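 also: HCT116 colon tumor cells with PTEN knocked out; cells exposed to compound for 60 hours before readout; potency for loss of cell viability measured by luminescence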
[10] = cytotoxicity in HPDE-C7 cells, cell-based, fluorescence, HTS (AID 430); type: functional; settings: Homo sapiens
[11] = growth suppression of beta-catenin-knockout colon cells, dose response, cell-based, HCT116, human colon tumor (AID 1045); type: functional;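 also: HCT116 colon tumor cells with beta catenin knocked out; cells exposed to compound for 60 hours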
[12] = cytotoxicity in KRAS-transformed pancreatic duct cells, primary screen, cell-based, fluorescence, HTS (AID 431); type: functional; settings: Homo sapiens;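 also: cell line used: HPDE-C7K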

Induced myeloid leukemia cell differentiation protein Mcl-1, sequence (Q07820 whole entry): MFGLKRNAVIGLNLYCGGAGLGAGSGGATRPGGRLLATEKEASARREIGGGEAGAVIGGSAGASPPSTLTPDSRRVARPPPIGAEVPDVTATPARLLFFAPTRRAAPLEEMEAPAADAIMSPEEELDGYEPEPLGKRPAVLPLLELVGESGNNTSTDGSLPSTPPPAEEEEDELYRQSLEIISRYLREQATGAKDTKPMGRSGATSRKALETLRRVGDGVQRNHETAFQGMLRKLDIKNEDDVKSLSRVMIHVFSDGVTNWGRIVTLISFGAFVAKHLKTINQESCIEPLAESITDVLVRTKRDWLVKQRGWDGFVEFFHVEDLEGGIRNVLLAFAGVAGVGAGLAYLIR
T1 sequence (P11940 whole entry): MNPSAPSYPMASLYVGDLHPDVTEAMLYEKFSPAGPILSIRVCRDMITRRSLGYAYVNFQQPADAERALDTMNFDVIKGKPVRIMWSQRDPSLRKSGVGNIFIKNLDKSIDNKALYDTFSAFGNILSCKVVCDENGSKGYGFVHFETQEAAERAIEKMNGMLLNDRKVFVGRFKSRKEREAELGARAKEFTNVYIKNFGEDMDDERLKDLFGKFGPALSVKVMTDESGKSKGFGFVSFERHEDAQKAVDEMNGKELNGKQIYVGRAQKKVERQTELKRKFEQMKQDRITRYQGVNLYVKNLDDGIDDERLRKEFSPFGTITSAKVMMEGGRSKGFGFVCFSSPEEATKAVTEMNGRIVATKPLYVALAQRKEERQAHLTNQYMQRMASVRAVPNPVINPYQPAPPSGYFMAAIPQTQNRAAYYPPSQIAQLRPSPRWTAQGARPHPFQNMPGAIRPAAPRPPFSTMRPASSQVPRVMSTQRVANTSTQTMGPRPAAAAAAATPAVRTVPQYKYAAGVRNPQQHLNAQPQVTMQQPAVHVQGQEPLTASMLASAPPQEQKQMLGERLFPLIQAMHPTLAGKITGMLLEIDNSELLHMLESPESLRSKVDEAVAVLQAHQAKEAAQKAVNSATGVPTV
Large T antigen, sequence (P03070 whole entry): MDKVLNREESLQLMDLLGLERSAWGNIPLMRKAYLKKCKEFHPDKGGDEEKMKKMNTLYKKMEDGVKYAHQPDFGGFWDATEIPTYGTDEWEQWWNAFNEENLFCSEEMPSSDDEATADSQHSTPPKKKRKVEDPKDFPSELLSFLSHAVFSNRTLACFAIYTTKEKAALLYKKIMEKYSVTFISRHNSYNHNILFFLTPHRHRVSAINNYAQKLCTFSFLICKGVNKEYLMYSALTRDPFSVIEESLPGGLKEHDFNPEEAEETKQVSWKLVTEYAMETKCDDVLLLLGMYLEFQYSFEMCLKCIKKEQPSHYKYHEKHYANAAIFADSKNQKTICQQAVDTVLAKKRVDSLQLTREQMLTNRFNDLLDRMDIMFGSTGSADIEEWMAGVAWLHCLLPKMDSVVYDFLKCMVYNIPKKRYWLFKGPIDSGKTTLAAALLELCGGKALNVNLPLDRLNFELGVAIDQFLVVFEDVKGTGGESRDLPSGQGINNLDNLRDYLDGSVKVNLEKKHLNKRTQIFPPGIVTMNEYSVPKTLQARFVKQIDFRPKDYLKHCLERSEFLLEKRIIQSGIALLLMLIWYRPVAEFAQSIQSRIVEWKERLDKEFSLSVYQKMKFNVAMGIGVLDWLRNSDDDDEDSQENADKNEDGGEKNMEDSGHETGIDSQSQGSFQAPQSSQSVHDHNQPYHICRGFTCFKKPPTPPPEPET

Nc1nnc(S)n1N=C1C(=O)Nc2ccccc21
IC50 [1]: > 66 µM (inactive)
IC50 [2]: 57.4 µM (active)
IC50 [3]: 4.84 µM (active)
IC50 [4]: > 66 µM (inactive)
IC50 (Large T antigen): 7.65 µM (active)
IC50 [5]: 30 µM (active)

CCCOc1ccc(Cc2nn3c(=O)/c(=C/c4ccco4)sc3nc2=O)cc1
IC50 [6]: 8.96 µM (not active)

COC(=O)c1ccccc1NC(=O)N1CCN(c2ccc(F)cc2)CC1
IC50 [7]: 8.67 µM (not active)

CC(=O)NNC(=O)c1sc(=S)n2c1[nH]c(=O)c1sccc12
IC50 (Aminopeptidase N): 11.6 µM (active)
IC50 [3]: > 50 µM (not active)
IC50 [5]: > 50 µM (not active)

O=C(Nc1ccc(Cl)c(Cl)c1)OCCNC(=O)c1cccc(Cl)c1
IC50 [7]: 2.99 µM (not active)

Oc1ccc(/C=N/Nc2ccnc3cc(Cl)ccc23)c(O)c1
IC50 [6]: 6.73 µM (active)

O=C(Nc1ccccn1)c1cccc(S(=O)(=O)N2CCCCC2)c1
IC50 [8]: > 100 µM (not active)

O=C(CN1C(=O)C2C3c4ccccc4C(c4ccccc43)C2C1=O)N1CCOCC1 (centres undefined)
IC50 [8]: > 100 µM (not active)

COc1ccccc1/C=C1/SC(=O)N(CCC(=O)Nc2ccc(S(=O)(=O)Nc3nccs3)cc2)C1=O
IC50 [6]: 2.69 µM (active)

CC(C)c1ccc(NC(S)=NC2CC3C=CC2C3)cc1 (centres undefined)
IC50 [7]: 42.5 µM (not active)

O=C(O)C1CC=CCC1C(=O)Nc1ccc(F)c(F)c1 (centres undefined)
IC50 [8]: > 100 µM (not active)
IC50 (Leucine aminopeptidase): 20.4 µM (active)

Cc1cc(-c2nnc3n2N=C(c2ccc(-c4ccccc4)cc2)CS3)[nH]n1
EC50 [9]: 15.9 µM (active)
IC50 [8]: > 100 µM (not active)
EC50 [10]: 15.2 µM (active)
EC50 [11]: 13.7 µM (active)
EC50 [12]: 16.1 µM (active)
